In EPA's ToxValDB 9.5:
Where “and” joins values, the source holds several entries; their conditions need not be identical. Equal entries are not always repeated.

Assays:
Mus musculus [1] = details: oral
Oryctolagus sp. [2] = details: for LD50: acute, dermal; for NOAEL: duration: 13 days, oral
Rattus norvegicus [3] = system: Rattus norvegicus
Rattus norvegicus [4] = details: subchronic, oral, gavage
Oryctolagus sp. [5] = experiment: LD0; higher = less toxic; details: acute, oral
Mus musculus [6] = details: chronic; duration: 2 years; inhalation; intermittent; Nasal mucosa: Hyperplasia + Nasal mucosa: Hypertrophy
Rattus norvegicus [7] = details: subchronic; duration: 90 days; oral; diet; Organs: Increased weight
Mus musculus [8] = details: subchronic; oral; gavage; M/F; clinical signs (lethargy, prostration, and ataxia and hematological changes
Mus musculus [9] = details: subchronic; duration: 90 days; oral; gavage; M/F; Crl:CD-1(ICR)BR-VAF+; Whole Body Effects
Rattus norvegicus [10] = details: chronic, oral, diet, M, Wistar, immunological
Mus musculus [11] = details: repeat dose other; oral
Coturnix japonica = details: repeat dose other; oral
Oryctolagus sp. [12] = details: developmental; duration: 12 days; oral; gavage; Dam: Decreased weight gain + Fetus: Decreased weight + Fetus: Increased mortality + Fetus: Increased post-implantation losses
Oryctolagus sp. [13] = details: developmental; oral; F; maternal (reduced weight gain) and fetal toxicity
[14] = short-term, duration: 4 weeks, oral, diet, Sprague-Dawley

S=c1[nH]c2ccccc2s1 [2-Mercaptobenzothiazole]
LD50 (Mus musculus [1]; acute): 2000 mg/kg | LD50 (Oryctolagus sp. [2]): > 7940 mg/kg | LD50 (Oryctolagus sp. [2]; New Zealand): > 7940 mg/kg | NOAEL (Oryctolagus sp. [2]; developmental, gavage, New Zealand): 300 mg/kg-day | NOAEL (Oryctolagus sp. [2]; reproduction developmental, gavage, F, New Zealand): 300 mg/kg-day and < 150 mg/kg-day | LC50 (Rattus norvegicus [3]; acute, inhalation): > 1.27 µg/mL | LD50 (Rattus norvegicus [3]; acute, oral, Sprague-Dawley): 2830 mg/kg and 3800 mg/kg | NOAEL (Rattus norvegicus [3]; developmental, duration: 10 days, oral, gavage, Sprague-Dawley): 1800 mg/kg-day and 2200 mg/kg-day | NOAEL (Rattus norvegicus [3]; reproduction developmental, duration: 10 days, oral, gavage, F, Sprague-Dawley): 300 mg/kg-day | NOAEL (Rattus norvegicus [3]; reproduction developmental, oral, diet, Crl:CD COBS BR): 2500 ppm | NOAEL (Rattus norvegicus [3]; reproduction developmental, oral, diet, Sprague-Dawley, generation: F0): < 5000 ppm | NOAEL (Rattus norvegicus [3]; reproduction developmental, oral, diet, Sprague-Dawley, generation: F1): < 5000 ppm | LOAEL (Rattus norvegicus [3]; [14]): 1070 mg/kg-day | NOAEL (Rattus norvegicus [3]; [14]): 714 mg/kg-day | NOAEL (Rattus norvegicus [3]; subchronic, duration: 13 weeks, oral, gavage, Fischer 344): 375 mg/kg-day | NOEL (Rattus norvegicus [4]; duration: 13 weeks, M/F, Fischer 344, Absolute Organ Weight: Liver increase + Relative Organ Weight: Liver increase): < 188 mg/kg-day | NOEL (Rattus norvegicus [4]; M, Sprague-Dawley, Clinical Observation: Locomotor activity with ptosis decrease, Salivation + Body Weight Changes: Suppression of body weight gain(tendency…): < 40 mg/kg-day | LD0 (Oryctolagus sp. [5]): ≥ 7500 mg/kg and ≤ 8750 mg/kg | LD0 (Oryctolagus sp. [5]; New Zealand): ≥ 7500 mg/kg and ≤ 8750 mg/kg

ClC=CCCl [1,3-Dichloropropene]
NOAEL (Mus musculus [6]): 22.7 mg/m3 | NOEL (Rattus norvegicus [7]): 3 mg/kg-day

Cc1ccc(O)c(C)c1 [2,4-Dimethylphenol]
LC50 (Mus musculus [1]; acute): 809 mg/kg | NOAEL (Mus musculus [1]; subchronic, duration: 90 days, gavage, F): 50 mg/kg-day | LC50 (Rattus norvegicus [3]; acute, oral): 2300 mg/kg | LOAEL (Mus musculus [8]): 250 mg/kg-day | NOAEL (Mus musculus [8]): 50 mg/kg-day | NOAEL (Mus musculus [9]): 50 mg/kg-day

CCC[CH2][Sn]([CH2]CCC)([CH2]CCC)[O][Sn]([CH2]CCC)([CH2]CCC)[CH2]CCC [Bis(tributyltin)oxide]
NOAEL (Rattus norvegicus [10]; duration: 6 months): 0.025 mg/kg-day | NOAEL (Rattus norvegicus [10]; duration: 18 months): 0.025 mg/kg-day | LOAEL (Mus musculus [11]): 35 mg/kg-day | NOAEL (Mus musculus [11]): 23.4 mg/kg-day | LOAEL (Coturnix japonica): 16.9 mg/kg-day | NOAEL (Coturnix japonica): 6.8 mg/kg-day

COc1c(Cl)ccc(Cl)c1C(=O)O [Dicamba]
NOAEL (Oryctolagus sp. [12]): 3 mg/kg-day | NOAEL (Oryctolagus sp. [2]; reproduction developmental, F, New Zealand): ≤ 30 mg/kg-day | NOAEL (Oryctolagus sp. [2]; reproduction developmental, New Zealand, generation: F1): ≤ 300 mg/kg-day | NOAEL (Rattus norvegicus [3]; developmental, duration: 14 days, oral, gavage, Crj:CD): ≤ 400 mg/kg-day | NOAEL (Rattus norvegicus [3]; reproduction developmental, duration: 14 days, oral, gavage, F, Crj:CD): ≤ 160 mg/kg-day | LEL (Oryctolagus sp. [13]): 10 mg/kg-day | NOEL (Oryctolagus sp. [13]): 3 mg/kg-day
